# According to ChEMBL document CHEMBL1150518, “Balanced angiotensin II receptor antagonists. III. The effects of substitution at the imidazole 5-position” (Bioorg Med Chem Lett, 1994):
# Columns and labels:
# [1] = target: T1, Type-2 angiotensin II receptor (Homo sapiens, UniProt P50052); experiment: Binding affinity for angiotensin II AT-2 receptor
# T1 sequence (P50052 whole entry): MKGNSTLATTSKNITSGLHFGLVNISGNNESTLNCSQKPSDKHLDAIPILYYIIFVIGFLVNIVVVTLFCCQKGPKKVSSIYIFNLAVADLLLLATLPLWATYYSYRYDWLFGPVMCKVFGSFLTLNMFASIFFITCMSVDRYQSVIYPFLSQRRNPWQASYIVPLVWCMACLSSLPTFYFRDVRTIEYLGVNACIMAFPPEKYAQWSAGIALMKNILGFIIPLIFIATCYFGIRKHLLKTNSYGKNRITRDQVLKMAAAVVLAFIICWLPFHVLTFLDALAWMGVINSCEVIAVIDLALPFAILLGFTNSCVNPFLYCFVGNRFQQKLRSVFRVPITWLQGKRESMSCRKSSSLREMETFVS
# [2] = target: T2, Type-1 angiotensin II receptor (Homo sapiens, UniProt P30556); experiment: Binding affinity for Angiotensin II receptor, type 1
# T2 sequence (P30556 whole entry): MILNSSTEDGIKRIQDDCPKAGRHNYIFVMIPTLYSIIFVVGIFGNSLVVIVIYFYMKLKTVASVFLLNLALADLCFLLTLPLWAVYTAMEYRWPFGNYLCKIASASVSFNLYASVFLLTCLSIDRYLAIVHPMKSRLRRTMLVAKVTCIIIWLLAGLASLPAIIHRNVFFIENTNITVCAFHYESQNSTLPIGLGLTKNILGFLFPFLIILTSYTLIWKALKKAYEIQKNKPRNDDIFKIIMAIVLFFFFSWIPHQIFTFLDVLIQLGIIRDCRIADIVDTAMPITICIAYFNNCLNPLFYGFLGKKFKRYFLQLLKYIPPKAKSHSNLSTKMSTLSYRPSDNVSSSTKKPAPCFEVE
# [3] = tested on: Rattus norvegicus; experiment: Antihypertensive activity of compound was measured in renal hypertensive rat after iv administration; type: functional
# [4] = tested on: Rattus norvegicus; experiment: Antihypertensive activity of compound was measured in renal hypertensive rat after oral administration; type: functional
SMILES,IC50 [1] [nM],IC50 [2] [nM],ED30 [3] [mg/kg],ED30 [4] [mg/kg]
CCCOC(=O)NS(=O)(=O)c1ccccc1-c1ccc(Cn2c(CCC)nc(CC)c2C(=O)OCc2ccccc2C(=O)c2ccccc2)c(F)c1,1.6,0.28,0.08,0.7
CCCc1nc(CC)c(C(=O)OCc2ccccc2C(=O)c2ccccc2)n1Cc1ccc(-c2ccccc2S(=O)(=O)NC(=O)OCCC(C)C)cc1F,0.7,0.5,0.05,0.9
CCCc1nc(CC)c(C(=O)O)n1Cc1ccc(-c2ccccc2-c2nnn[nH]2)cc1,> 1000,6,0.005,0.03
CCCc1nc(CC)c(C(=O)OCc2ccccc2C(=O)c2ccccc2)n1Cc1ccc(-c2ccccc2S(=O)(=O)NC(=O)OCCC(C)C)cc1,1.9,0.35,,
CCCc1nc(CC)c(C(=O)OCc2ccccc2C(=O)c2ccccc2)n1Cc1ccc(-c2ccccc2-c2nnn[nH]2)cc1,300,2,,
CCCc1nc(CC)c(C(=O)OCCC(=O)Nc2ccccc2)n1Cc1ccc(-c2ccccc2S(=O)(=O)NC(=O)OCCC(C)C)cc1F,3,0.1,,

# Continued by falling IC50 [1], values first:
IC50 [1] [nM],IC50 [2] [nM],SMILES,ED30 [3] [mg/kg],ED30 [4] [mg/kg]
20,0.4,CCCCOC(=O)NS(=O)(=O)c1ccccc1-c1ccc(Cn2c(CCC)nc(CC)c2C(=O)NCCCOc2ccccc2)c(F)c1,,
10,1,CCCCCCCOC(=O)NS(=O)(=O)c1ccccc1-c1ccc(Cn2c(CCC)nc(CC)c2C(=O)OCc2ccccc2OC)c(F)c1,,
1,0.3,CCCc1nc(CC)c(C(=O)OCc2ccccc2C(=O)Nc2ccccc2)n1Cc1ccc(-c2ccccc2S(=O)(=O)NC(=O)OCCC(C)C)cc1F,,
